Measurements as given in patent US10512652B2, “Use of cymanquine compounds as antimalarial agents” (priority 2015, dated 2019).

Legend:
[1] = test system: P. falciparum strain D10ydhod; assay: [3H]-hypoxanthine incorporation growth inhibition, strain D10ydhod; format: cell-based, Plasmodium falciparum; conditions: strain D10ydhod (expresses S. cerevisiae dihydroorotate dehydrogenase)
Protocol: (§1) P. falciparum strains were cultured under standard conditions in RPMI1640 medium supplemented with 0.5% Albumax in 90% N2, 5% 02 and 5% CO2. A modified version of the [^3H]-hypoxanthine incorporation method was employed for assessing growth inhibition by the inhibitor compounds. Briefly, P. falciparum strain Dd2 or strain D10ydhod (this strain express the Saccharomyces cerevisiae dihydroorotate dehydrogenase enzyme which renders mitochondrial electron transport nonessential in the parasite) parasites were seeded at 2% parasitemia in 96-well plates and treated with varying concentration of the inhibitors as well as the solvent (DMSO) for 24 h. [^3H]-Hypoxanthine was added to the cultures and incubation was continued for an additional 24 h. Incorporation of [^3H]-hypoxanthine by the parasites was determined by liquid scintillation. Growth inhibition was assessed as decrease in [^3H]-hypoxanthine incorporation in treated parasites relative to the control parasites treated with the solvent. The dose-response data were analyzed using nonlinear regression analysis (Prism GraphPad), and the EC50 was derived using an inhibitory sigmoid maximum effect (Emax) model. Each assay is completed in triplicate and the average EC50 was calculated. […]

P. falciparum strain Dd2 = assay: [3H]-hypoxanthine incorporation growth inhibition, strain Dd2; format: cell-based, Plasmodium falciparum; conditions: multidrug resistant strain Dd2; 24 h treatment + 24 h [3H]-hypoxanthine; average of triplicate
Protocol: as §1

[2] = Cyclic voltammetry, anodic oxidation; format: physicochemical; conditions: irreversible, anodic peak potential, dichloromethane/0.05 M [NBu4][B(C6F5)4]
Protocol: Electrochemical studies were carried out. The electrolyte solution used for these studies, namely dichloromethane with 0.05 M [NBu4][B(C6F5)4] as the supporting electrolyte, is known to provide an optimum medium for the electrochemical oxidation of compounds containing the MnCp(CO)3 (Cp=η^5-C5H5) backbone (Laws et al., J. Am. Chem. Soc. 2008, 130, 9859). The potentials given here are referred to the ferrocene/ferrocenium reference couple. The experiments were carried out in a controlled atmosphere which minimizes exposure to oxygen and water. We refer to two types of standard electrochemical techniques that are commonly described in books on electrochemistry: cyclic voltammetry and bulk electrolysis (Bard, A. J.; Faulkner, L. R. Electrochemical Methods, John Wiley & Sons, New York, 2001, second edition) The former is useful for the analytical and gross mechanistic aspects of the electron-transfer properties of a compound, whereas the latter is most often employed for the electro-synthetic function of making isolable quantities of electrochemical oxidation or reduction products.
Anodic oxidation of the three compounds was investigated. […]
Table of potentials (vs ferrocene/ferrocenium (FcH)) measured by cyclic voltammetry for oxidation of compounds 3, 4, and 5 in dichloromethane/0.05 M [NBu4][B(C6F5)4]. […]

Substance: cymanquine [Compound 3]
- potency against strain D10ydhod compared with strain Dd2 [1]: Equivalent potency
- EC50 (P. falciparum strain Dd2): ~10.8 nM
- Ep(1) ([2]; first oxidation): 0.82 V vs FcH
- Ep(2) ([2]; second oxidation): 1.25 V vs FcH
